Patent publication US20240246918A1, “COMPOUNDS AND COMPOSITIONS AS EIF4E INHIBITORS AND THE USES THEREOF” (Ribometrix, Inc., priority 2022, published 2024)

Experiments:
[1] = molecular target: T1, human eIF4E protein (Homo sapiens, UniProt P06730); test: Biochemical competitive binding assay (TR-FRET competition, EDA-m7GDP-ATTO-647N probe); conditions: read-out: hEIF4E TR-FRET IC50
T1 construct: purchased Novus NBP-45314
Experimental: The potencies of compounds binding to human eIF4E protein were measured using a 384-well time-resolved fluorescence resonance energy transfer (TR-FRET) competition assay. The assay was performed in assay buffer containing 50 mM HTEPES pH 7.5, 100 mM KCl, 0.02% Tween-20, and 0.1 mg/mL bovine serum albumin (BSA). The reaction volume was 10 μL and each reaction contained 4 nM recombinant 6×HIS-tagged human EIF4E protein (Novus, NBP-45314), 5 nM EDA-m7GDP-ATTO-647N (Jena Bioscience, NU-827-647N), 2.5 nM Europium conjugated Anti-6×HIS antibody (PerkinElmer, AD0402) and varying concentrations of compound. The final DMSO concentration was […].
Compounds were prepared using 11-point, 4-fold serial dilutions in DMSO and 100 nL of diluted compounds were transferred to 384-well assay-ready plates. Recombinant human EIF4E protein at 2× final concentration (8 nM) was pre-incubated with Eu-anti-6×HIS antibody at 2× final concentration (5 nM) for 5 minutes, then 5 μL of the protein solution was added to assay-ready plates. The protein/compound mix was incubated for 15 minutes, after which 5 μL of a solution containing EDA-m7GDP-ATTO-647N probe at 2× final concentration (10 nM) was added. After a subsequent 15-minute incubation, time-resolved fluorescence of assay plates was measured using a Clariostar Plus microplate reader (BMG Labtech) and TR-FRET values were calculated by taking a ratio of the 665 to 620 wavelength signals. After normalization to the average of DMSO control and maximum inhibition control wells, concentration-response data were plotted and standard 4-parameter curve fitting (PEI Signals) was utilized to determine IC50 values.

[2] = tested on: COLO 205 colorectal tumor cells; test: Tumor cell viability inhibition assay (CellTiter-Glo 2.0, 72 hours); type: cell-based; conditions: COLO 205 cell viability
Experimental: The effect of compound treatment on COLO 205 tumor cell viability was assessed using cellular ATP quantification methods (Promega CellTiter-Glo® 2.0, G9241), as follows. Test compounds were prepared using 11-point, 4-fold serial dilutions in DMSO and 100 nL of diluted compounds were transferred to 384-well assay-ready plates. COLO 205 (ATCC, CCL-222) colorectal tumor cells were seeded to assay-ready plates in RPMI-1640 medium supplemented with 10% FBS at 1500 cells in a volume of 33.5 microliters per well. After 72 hours of compound treatment, cellular ATP was assessed by CellTiter-Glo® 2.0 Cell Viability Assay method, according to the manufacturer's instructions. Luminescence was measured using a Clariostar Plus microplate reader (BMG Labtech) or equivalent. After normalization to the average of DMSO control and maximum inhibition control wells, concentration-response data were plotted and standard 4-parameter curve fitting (PEI Signals) was utilized to determine IC50

T1 sequence (P06730 whole entry): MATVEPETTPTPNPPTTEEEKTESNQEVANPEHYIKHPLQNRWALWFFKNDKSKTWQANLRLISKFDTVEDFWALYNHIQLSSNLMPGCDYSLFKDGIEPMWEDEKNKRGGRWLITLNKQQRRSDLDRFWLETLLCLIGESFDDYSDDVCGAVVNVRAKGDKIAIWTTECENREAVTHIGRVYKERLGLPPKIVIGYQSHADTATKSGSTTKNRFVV

Row | SMILES | IC50 [1] [µM] | IC50 ([2]; Homo sapiens, COLO 205, 72 h) [µM] | IC50 [2] [µM]
1 | Cc1cc(-c2cc(Cl)c(=O)[nH]c2OCCn2c(C)nc3c(c2=O)CC(N(C)CC2CC(F)(F)C2)CC3)c2scc(C(=O)O)c2n1 (single isomer, unassigned) [Compound 237] | 0.5 to 5 | > 20 | 
2 | Cc1cc(-c2cc(Cl)ccc2OCCn2c(C)nc3c(c2=O)C[C@@H](N2CCC(OC(F)F)CC2)CC3)c2scc(C(=O)O)c2n1 (single isomer, unassigned) [Compound 360] | < 0.1 | < 5 | 
3 | Cc1cc(-c2cc(Cl)ccc2OCCn2c(C)nc3c(c2=O)CC(N2CC4CC(C2)C4(F)F)CC3)c2scc(C(=O)O)c2n1 (single isomer, unassigned) [Compound 361] | < 0.1 | < 5 | 
4 | Cc1cc(-c2cc(Cl)ccc2OCCn2c(C)nc3c(c2=O)CC(N2CC4(CCC(F)(F)CC4)C2)CC3)c2scc(C(=O)NS(C)(=O)=O)c2n1 (single isomer, unassigned) [Compound 363] | < 0.1 | < 5 | 
5 | CO[C@@H]1CCN([C@@H]2CCc3nc(C)n(CCOc4ccc(Cl)cc4-c4cc(C)nc5c(C(=O)O)csc45)c(=O)c3C2)C[C@@H]1F (single isomer, unassigned) [Compound 366] | < 0.1 | 5 to 20 | 
6 | CO[C@@H]1CCN([C@H]2CCc3nc(C)n(CCOc4ccc(Cl)cc4-c4cc(C)nc5c(C(=O)O)csc45)c(=O)c3C2)C[C@@H]1F (single isomer, unassigned) [Compound 367] | < 0.1 | < 5 | 
7 | [2H]C1(N2CCC(OC(F)(F)F)CC2)CCc2nc(C)n(CCOc3ccc(Cl)cc3-c3cc(C)nc4c(C(=O)O)csc34)c(=O)c2C1 (single isomer, unassigned) [Compound 370] | < 0.1 |  | < 5
8 | COC1CCN([C@H]2Cc3c(nc(C)n(CCOc4ccc(Cl)cc4-c4cc(C)nc5c(C(=O)O)csc45)c3=O)C3(CC3)C2)CC1 (single isomer, unassigned) [Compound 371] | < 0.1 | < 5 | 
9 | COC1CCN([C@@H]2Cc3c(nc(C)n(CCOc4ccc(Cl)cc4-c4cc(C)nc5c(C(=O)O)csc45)c3=O)C3(CC3)C2)CC1 (single isomer, unassigned) [Compound 372] | < 0.1 | < 5 | 
10 | Cc1cc(-c2cc(Cl)ccc2OCCn2c(C)nc3c(c2=O)C[C@@H](N2CCC(C(F)(F)F)CC2)CC3)c2scc(C(=O)O)c2n1 (single isomer, unassigned) [Compound 374] | < 0.1 | < 5 | 
11 | Cc1cc(-c2cc(Cl)ccc2OCCn2c(C)nc3c(c2=O)CC(N2CC4CC(C2)C4(F)F)CC3)c2scc(C(=O)O)c2n1 (single isomer, unassigned) [Compound 375] | < 0.1 |  | < 5
12 | CO[C@@H]1CCN([C@H]2CCc3nc(C)n(CCOc4ccc(Cl)cc4-c4cc(C)nc5c(C(=O)O)csc45)c(=O)c3C2)CC1(C)C (single isomer, unassigned) [Compound 377] | < 0.1 | < 5 | 
13 | CO[C@H]1CCN([C@H]2CCc3nc(C)n(CCOc4ccc(Cl)cc4-c4cc(C)nc5c(C(=O)O)csc45)c(=O)c3C2)CC1(C)C (single isomer, unassigned) [Compound 378] | < 0.1 | < 5 | 
14 | Cc1cc(-c2cc(Cl)ccc2OCCn2c(C)nc3c(c2=O)C[C@H](N2CCC[C@H](C(F)(F)F)C2)CC3)c2scc(C(=O)O)c2n1 (single isomer, unassigned) [Compound 381] | < 0.1 | < 5 | 
15 | Cc1cc(-c2cc(Cl)ccc2OCCn2c(C)nc3c(c2=O)C[C@@H](N2CCC[C@H](C(F)(F)F)C2)CC3)c2scc(C(=O)O)c2n1 (single isomer, unassigned) [Compound 384] | < 0.1 | < 5 | 
16 | Cc1cc(-c2cc(Cl)ccc2OCCn2c(C)nc3c(c2=O)C[C@H](N2CCC(OC(F)F)CC2)CC3)c2scc(C(=O)O)c2n1 (single isomer, unassigned) [Compound 385] | < 0.1 | < 5 | 
17 | Cc1cc(-c2cc(Cl)ccc2OCCn2c(C)nc3c(c2=O)C[C@@H](N2CC[C@H](OC(F)(F)F)C2)CC3)c2scc(C(=O)O)c2n1 (single isomer, unassigned) [Compound 388] | < 0.1 | < 5 | 

The next lines start with the values.

Row | IC50 [1] [µM] | IC50 ([2]; Homo sapiens, COLO 205, 72 h) [µM] | IC50 [2] [µM] | SMILES
18 | 0.5 to 5 |  | > 20 | Cc1cc(-c2cc(Cl)c(=O)[nH]c2OCCn2c(C)nc3c(c2=O)CC(N(C)CC2CC(F)(F)C2)CC3)c2scc(C(=O)O)c2n1 (single isomer, unassigned) [Compound 238]
19 | < 0.1 | < 5 |  | [2H]C1(N2CCC(OC(F)(F)F)CC2)CCc2nc(C)n(CCOc3ccc(Cl)cc3-c3cc(C)nc4c(C(=O)O)csc34)c(=O)c2C1 (single isomer, unassigned) [Compound 362]
20 | < 0.1 |  | < 5 | Cc1cc(-c2cc(Cl)ccc2OCCn2c(C)nc3c(c2=O)CC(N2CC4(CCC(F)(F)CC4)C2)CC3)c2scc(C(=O)NS(C)(=O)=O)c2n1 (single isomer, unassigned) [Compound 364]
21 | < 0.1 | < 5 |  | COC1CCN(C2CCc3nc(C)n(CC#Cc4ccc(Cl)cc4-c4ccnc5c(C(=O)O)csc45)c(=O)c3C2)CC1 (single isomer, unassigned) [Compound 365]
22 | < 0.1 | < 5 |  | Cc1cc(-c2cc(Cl)ccc2OCCn2c(C)nc3c(c2=O)C[C@H](N2C[C@@H]4CC(F)(F)C[C@@H]4C2)CC3)c2scc(C(=O)NS(C)(=O)=O)c2n1 (single isomer, unassigned) [Compound 368]
23 | < 0.1 | < 5 |  | Cc1cc(-c2cc(Cl)ccc2OCCn2c(C)nc3c(c2=O)C[C@H](N2CCC(C(F)(F)F)CC2)CC3)c2scc(C(=O)O)c2n1 (single isomer, unassigned) [Compound 373]
24 | < 0.1 | < 5 |  | CO[C@@H]1CCN([C@@H]2CCc3nc(C)n(CCOc4ccc(Cl)cc4-c4cc(C)nc5c(C(=O)O)csc45)c(=O)c3C2)CC1(C)C (single isomer, unassigned) [Compound 376]
25 | < 0.1 | < 5 |  | Cc1cc(-c2cc(Cl)ccc2OCCn2c(C)nc3c(c2=O)CC(N2CCC(OC(F)(F)F)CC2)CC32CC2)c2scc(C(=O)O)c2n1 (single isomer, unassigned) [Compound 379, 7-(5-chloro-2-(2-(2′-methyl-4′-oxo-6′-(4-(trifluoromethoxy)piperidin-1-yl)-6′,7′-dihydro-4′H-spiro[cyclopropane-1,8′-quinazolin]-3′(5′H)-yl)ethoxy)phenyl)-5-methylthieno[3,2-b]pyridine-3-carboxylic acid]
26 | < 0.1 |  | < 5 | Cc1cc(-c2cc(Cl)ccc2OCCn2c(C)nc3c(c2=O)CC(N2CCC(OC(F)(F)F)CC2)CC32CC2)c2scc(C(=O)O)c2n1 (single isomer, unassigned) [Compound 380, 7-(5-chloro-2-(2-(2′-methyl-4′-oxo-6′-(4-(trifluoromethoxy)piperidin-1-yl)-6′,7′-dihydro-4′H-spiro[cyclopropane-1,8′-quinazolin]-3′(5′H)-yl)ethoxy)phenyl)-5-methylthieno[3,2-b]pyridine-3-carboxylic acid]
27 | < 0.1 | < 5 |  | Cc1cc(-c2cc(Cl)ccc2OCCn2c(C)nc3c(c2=O)C[C@H](N2CCC[C@@H](C(F)(F)F)C2)CC3)c2scc(C(=O)O)c2n1 (single isomer, unassigned) [Compound 382]
28 | < 0.1 | 5 to 20 |  | Cc1cc(-c2cc(Cl)ccc2OCCn2c(C)nc3c(c2=O)C[C@@H](N2CCC[C@@H](C(F)(F)F)C2)CC3)c2scc(C(=O)O)c2n1 (single isomer, unassigned) [Compound 383]
29 | < 0.1 | < 5 |  | Cc1cc(-c2cc(Cl)ccc2OCCn2c(C)nc3c(c2=O)C[C@H](N2CC[C@H](OC(F)(F)F)C2)CC3)c2scc(C(=O)O)c2n1 (single isomer, unassigned) [Compound 386]
30 | < 0.1 | < 5 |  | Cc1cc(-c2cc(Cl)ccc2OCCn2c(C)nc3c(c2=O)C[C@H](N2CC[C@@H](OC(F)(F)F)C2)CC3)c2scc(C(=O)O)c2n1 (single isomer, unassigned) [Compound 387]
31 | < 0.1 | < 5 |  | Cc1cc(-c2cc(Cl)ccc2OCCn2c(C)nc3c(c2=O)C[C@@H](N2CC[C@@H](OC(F)(F)F)C2)CC3)c2scc(C(=O)O)c2n1 (single isomer, unassigned) [Compound 389]
